The text below walks through data of patent publication US20190142835A1, “INHIBITION OF AUTOPHAGY USING PHOSPHOLIPASE A2 INHIBITORS” (OREGON HEALTH & SCIENCE UNIVERSITY, priority 2017, published 2019).

Experiment [1] relates to human RCC cells (ACHN and SN12C). Description: Phosphoproteomics screen and kinase substrate enrichment analysis. Format: cell-based. The following applies: phosphoproteome. As to the method: Enriched phospho-peptides were digested with trypsin and analyzed by mass spectroscopy following the published “Cell Signaling Technology” protocol.
MS raw files were analyzed via MaxQuant version 1.5.3.30 [73] and MS/MS fragmentation spectra were searched using Andromeda against human canonical and isoform sequences in Swiss-Prot (downloaded in September 2016 from http://uniprot.org). Quantitative phosphopeptide data were log10 transformed and missing data were imputed before applying quantile normalization as previously described. Hierarchical clustering was performed on the Cluster 3.0 program, using distance that is based on the Pearson correlation and applying pairwise average linkage analysis. Java Treeview was used to visualize clustering results.
Kinase substrate enrichment analysis (KSEA) was performed as previously described. […] Permutation analysis was conducted to calculate statistical significance. The normalized enrichment score was calculated by dividing the enrichment score by the average of the absolute values of all enrichment scores from the permutation analysis.

Experiment [2] deals with Atg5−/− murine embryonic fibroblasts. Description: Lipid droplet number in Atg5−/− MEFs. Format: cell-based, mouse. To be noted: ATG5 deficient, 24 hr. The procedure: (§1) Cells were grown on coverslips then treated with drug for 24 hours. Cells were fixed in 4% paraformaldehyde for 15 min, rinsed with PBS. Cells were washed with a 1% saponin solution for 15 min at room temperature then washed several times in PBS to remove detergent. Cells were then incubated in Bodipy (ThermoFisher #D3922) at a final concentration of 1 uM for 10 min. Bodipy was removed and slides were rinsed with PBS then air dried and mounted on slides using Dako mounting media with Dapi.

Another experiment has as its system ACHN xenografts. Description: ACHN xenograft study. Format: in vivo. The procedure:
6-week old mice were utilized for human renal cell carcinoma xenografts. For both ACHN and SN12C cell lines 2×10^6 cells were diluted in 50 μl of PBS and 50 μl of Matrigel (BD Biosciences) and were injected subcutaneously into the right and left flank of each mouse. Tumors were monitored until they reached an average size of 50-80 mm3 (approximately 2 weeks), at which point treatments were begun. […] MK2206 (60 mg/kg/day) were administered by oral gavage 2-3 day/week. […] Tumors and mouse weights were measured twice weekly. At least 6-8 mice per treatment group were included. All mice were euthanized using CO2 inhalation followed by cervical dislocation per institutional guidelines at Oregon Health and Science University. Experiments were approved by the Institutional Animal Care and Use Committee at OHSU.
Immunostaining was performed following deparaffinization and rehydration of slides. Antigen retrieval was performed in a pressure cooker using citrate buffer (pH 6.0) for 4 min. Nonspecific binding was blocked using Vector mouse IgG blocking serum 30 min at room temperature. Samples were incubated at room temperature with rabbit monoclonal antibodies pS6 (CST #5364) cleaved caspase 3 (CST#9661), and Ki67 (Dako#M7240).
Slides were developed with Vector Immpress rabbit IgG (#MP7401) and Vector Immpress mouse IgG (#MP7400) for 30 min at room temperature. Chromogenic detection was performed using Vector Immpact DAB (#SK4105) for 3 min. Slides were counterstained with hematoxylin. A 3DHistech MIDI Scanner (Perkin Elmer) was used to capture whole slide digital images with a 20× objective. Images were converted to into MRXS files and computer graphic analysis was completed using inForm 1.4.0 Advanced Image Analysis Software (Perkin Elmer).
Mouse tumor size was analyzed by 2-way ANOVA with time and drug as factors, using GraphPad Prism. Mouse weight during treatment was analyzed by repeated measures 2-way ANOVA, with time and drug as factors. A P value less than 0.05 was considered statistically significant. Immunohistochemistry: P-values were calculated using one-way ANOVA, with Bonferroni's multiple comparison test. * denotes P<0.05, ** denotes P<0.01, and *** denotes P<0.001 throughout this disclosure. Metabolite fold-changes were computed and visualized in Python script, using the openpyxl package (for importing Excel files) and the matplotlib package (for visualizing fold changes).

The next experiment relates to ACHN cells. Description: Cellular respiration (XF96 Seahorse, ECAR and OCR). Format: cell-based, human. The following applies: XF-96 Extracellular Flux Analyzer. As to the method:
Oxygen consumption and extracellular acidification rates were carried out in a XF96 Seahorse Analyzer (Seahorse Bioscience, Billerica, Mass., USA). Cells were plated in the wells of 96-well plates (8×10^3 cells/well; XF96 plates, Seahorse Bioscience, North Billerica, Mass.) and incubated at 37° C. overnight. The next day, cells were treated with indicated drugs for 24 hours and then the medium was changed to XF Assay Medium and loaded with glucose, oligomycin, and 2-DG, respectively, as manufacture's recommendation.

The subject of experiment [3] is Atg5 deficient cells (Atg5−/−). The experiment in a line: Autophagy induction in Atg5 deficient MEFs. Format: cell-based, mouse.
In experiment [4] the test system is Atg5+/+ murine embryonic fibroblasts. The experiment in a line: Lipid droplet number in Atg5+/+ MEFs. Format: cell-based, mouse. The following applies: 24 hr. The procedure: as §1

As to `N#CCNC(=O)c1ccc(-c2ccnc(Nc3ccc(N4CCOCC4)cc3)n2)cc1` [CYT387], in experiment [1], the RICTOR phosphorylation entry was “hypophosphorylated at T^1135”; the “STAT3 Y^705 phosphorylation” value was “trended towards hypophosphorylation of STAT3 Y^705”; the “TSC2 phosphorylation (T^1462, S^1798)” value was “hypophosphorylated at two inhibitory phosphoresidues”; the “insulin receptor (INSR) Y^1189 phosphorylation” value is listed as “hyperphosphorylation”. In experiment [1], the “ribosomal protein S6 (RPS6) phosphorylation” value was “trended towards hypophosphorylation”. In addition, the lipid droplets result in experiment [2] is listed as “no increase in lipid droplets”. Besides, the “apoptosis (cleaved-caspase3) in tumors” value in the experiment with ACHN xenografts (ACHN xenograft tumors) is listed as “minimal impact on apoptosis”. Besides, the “antitumor effect of single agent” value in the experiment with ACHN xenografts (ACHN, CYT387 50 mg/kg/day or MK2206 60 mg/kg/day oral gavage) is “exhibited antitumor effect”. In the experiment with ACHN xenografts (treatment day 40, ACHN xenograft tumors, CYT387<MK2206<CYT387+MK2206, p=0.0046), the “number of adipophilin-positive LDs in tumors” value is “significantly and incrementally increased”. For the same molecule, the ECAR entry with ACHN cells was “significantly reduced the ECAR”. In addition, the autophagy induction result in experiment [3] is given as “did not induce autophagy”. The LD numbers entry in experiment [4] is “significantly increase LD numbers”.
